Key:
P388 cell line = conditions: Tetrahedron 1994, 50, 3987-3992; cited from earlier work
[1] = cited from earlier work
HCT 116 cell line = conditions: cited from earlier work
Sacharomyces cerevisiae = conditions: cited from earlier work
P-388 = test: cytotoxicity against P-388; format: cell-based; conditions: Mus musculus, P388
Procedure: (§1) The cytotoxicity of the compounds of scheme 4 of this invention is illustrated by the following IC50 μM data: […]

A-549 = test: cytotoxicity against A-549; format: cell-based; conditions: Homo sapiens, A549
Procedure: as §1

HT-29 = test: cytotoxicity against HT-29; format: cell-based; conditions: Homo sapiens
Procedure: as §1

Herpes simplex = conditions: cited from earlier work
other microorganisms = conditions: cited from earlier work

## C[n+]1c([O-])cc(-c2c3c(O)ccnc3n3c(N)nccc23)nc1N [Variolin A]
P388 cell line
  cytotoxic activity against the P388 cell line: important cytotoxic activity

## COC(=O)c1c2c(O)ccnc2n2c(N)nccc12 [Variolin D, variolin D]
[1]
  activity in all the assays: inactive

## CN1C(N)=NCCC1c1c2c(O)ccnc2n2c(N)nccc12 (stereo not shown) [N(3′)-methyltetrahydrovariolin B, N (3′)-methyl tetrahydrovariolin B]
HCT 116 cell line
  in vitro activity against the HCT 116 cell line: in vitro activity
Sacharomyces cerevisiae
  growth of Sacharomyces cerevisiae: inhibited the growth

## CSc1nccc(-c2c3cccnc3n3c(NC(C)=O)nccc23)n1 [Compound 20a, 9-Acetylamino-5-(2-methanesulfanylpyrimidin-4-yl)pyrido[3′,2′:4,5]-pyrrolo-[1,2-c]pyrimidine]
P-388
  IC50: > 3000 nM
A-549
  IC50: 290 nM
HT-29
  IC50: 290 nM

## Nc1nccc(-c2c3cccnc3n3c(N)nccc23)n1 [Compound 5, 9-Amino-5-(2-aminopyrimidin-4-yl)pyrido[3′,2′:4,5]pyrrolo[1,2-c]-pyrimidine]
P-388
  IC50: 360 nM
A-549
  IC50: 40 nM
HT-29
  IC50: 40 nM

## CSc1nccc(-c2c3cccnc3n3c(N)nccc23)n1 [Compound 21, 9-Amino-5-(2-methanesulfanylpyrimidin-4-yl)pyrido[3′,2′:4,5]pyrrolo[1,2-c]pyrimidine]
P-388
  IC50: > 3000 nM
A-549
  IC50: 160 nM
HT-29
  IC50: 160 nM

## Nc1nccc(-c2c3c(O)ccnc3n3c(N)nccc23)n1 [variolin B]
Herpes simplex
  effectiveness against Herpes simplex: effective
P388 cell line
  cytotoxic activity against the P388 cell line: cytotoxic activity
Other microorganisms
  activity against a range of other microorganisms: inactive
P-388
  IC50: 850 nM
A-549
  IC50: 170 nM
HT-29
  IC50: 90 nM

Reference: patent publication US7329666B2, “Derivatives of variolin B” (Pharma Mar, S.A., priority 2000, dated 2008)
